Assay results published in ChEMBL document CHEMBL3301562, “MMV Box screening against Plasmodium falciparum protein kinases and aminoacyl tRNA synthetases”.

Tests used:
Type in all cases: functional
[1] = target: T1, Cdk-related protein kinase 6 (Plasmodium falciparum, UniProt O77239); test: Final concentrations were 1.5 uM ATP, 5 mM MnCl2, and 15 ug/ml PK6 in a buffer of 100 mM Tris-HCl (pH 7.5). 50 ug/mL MBP was provided as the substrate; 10 uM staurosporine was used as a control inhibitor. Incubation time was 3 hours and 40 minutes.The catalytic activity of each kinase was considered proportional to ATP consumed, as determined from measurements of residual [ATP] with the luciferase-based reagent Kinase-Glo (Promega) following incubation. Luminescence (proportional to residual [ATP]) was measured on the plate readers FLx800 (BioTek Instruments, Winooski, VT, USA) and MicroBeta2.
T1 sequence (O77239 whole entry): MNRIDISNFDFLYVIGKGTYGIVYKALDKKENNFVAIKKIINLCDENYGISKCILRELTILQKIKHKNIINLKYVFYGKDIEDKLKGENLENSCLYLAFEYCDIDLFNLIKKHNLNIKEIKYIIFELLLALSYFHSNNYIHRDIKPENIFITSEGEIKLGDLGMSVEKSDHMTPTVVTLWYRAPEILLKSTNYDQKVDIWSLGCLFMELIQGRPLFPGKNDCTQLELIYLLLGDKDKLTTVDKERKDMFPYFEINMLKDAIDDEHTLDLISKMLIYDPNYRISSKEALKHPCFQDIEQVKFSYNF

[2] = target: T2, Putative uncharacterized protein pk7 (Plasmodium falciparum, UniProt O96214); test: Final concentrations were 1 uM ATP, 2 mM DTT, 20 mM MgCl2, 2 mM MnCl2, 0.01% BSA, and 6 ug/ml PK7, in a buffer of 20 mM Tris-HCl (pH 7.5). The enzyme itself was the only substrate present (since autophosphorylation occurs); 100 uM 1NA-PP1 was used as a control inhibitor. Incubation time was 3 hours.
T2 sequence (O96214 whole entry): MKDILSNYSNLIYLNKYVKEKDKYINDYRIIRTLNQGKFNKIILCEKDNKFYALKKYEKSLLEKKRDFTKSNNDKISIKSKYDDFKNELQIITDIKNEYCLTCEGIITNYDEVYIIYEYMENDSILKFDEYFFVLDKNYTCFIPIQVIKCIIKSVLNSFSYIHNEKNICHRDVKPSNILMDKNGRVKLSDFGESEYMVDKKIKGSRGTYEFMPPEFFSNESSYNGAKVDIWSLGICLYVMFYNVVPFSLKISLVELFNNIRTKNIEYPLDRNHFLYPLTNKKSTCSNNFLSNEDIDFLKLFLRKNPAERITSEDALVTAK

[3] = target: T3, Mitogen-activated protein kinase (Plasmodium falciparum, UniProt Q25917); test: Final concentrations were 1 uM ATP, 0.5 mM DTT, 1 mM MgCl2, 0.5 mg/mL BSA, and 10 ug/ml MAP2 in a buffer of 50 mM HEPES (pH 7.0). 0.5 mg/mL histone III-S served as the substrate (13); 100 uM AMP-PNP, an ATP analog, was used as a control inhibitor. Incubation time was 4 hours.
T3 sequence (Q25917 whole entry): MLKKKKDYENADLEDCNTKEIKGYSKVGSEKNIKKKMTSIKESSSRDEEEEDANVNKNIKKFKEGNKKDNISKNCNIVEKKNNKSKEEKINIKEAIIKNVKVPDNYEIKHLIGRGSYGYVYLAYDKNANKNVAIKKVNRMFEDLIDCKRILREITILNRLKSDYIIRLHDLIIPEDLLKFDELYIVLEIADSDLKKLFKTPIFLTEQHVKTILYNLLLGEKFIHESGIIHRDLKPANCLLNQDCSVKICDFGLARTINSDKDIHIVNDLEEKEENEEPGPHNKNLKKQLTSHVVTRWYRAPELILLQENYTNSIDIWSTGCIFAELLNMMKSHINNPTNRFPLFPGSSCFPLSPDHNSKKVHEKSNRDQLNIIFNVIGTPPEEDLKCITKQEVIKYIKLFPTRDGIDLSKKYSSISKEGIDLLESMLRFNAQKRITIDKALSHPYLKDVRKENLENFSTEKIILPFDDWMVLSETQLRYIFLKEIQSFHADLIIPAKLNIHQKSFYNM

[4] = target: Calcium-dependent protein kinase 1 (Plasmodium falciparum, UniProt P62344); test: MMV: CDPK1 Protein kinase inhibition assay using recombinant PfCDPK1, syntide 2 peptide substrate, ATP and KinaseGlo to measure % inhibition at 1 uM MMV box compound.
Sequence of Calcium-dependent protein kinase 1 (P62344 whole entry): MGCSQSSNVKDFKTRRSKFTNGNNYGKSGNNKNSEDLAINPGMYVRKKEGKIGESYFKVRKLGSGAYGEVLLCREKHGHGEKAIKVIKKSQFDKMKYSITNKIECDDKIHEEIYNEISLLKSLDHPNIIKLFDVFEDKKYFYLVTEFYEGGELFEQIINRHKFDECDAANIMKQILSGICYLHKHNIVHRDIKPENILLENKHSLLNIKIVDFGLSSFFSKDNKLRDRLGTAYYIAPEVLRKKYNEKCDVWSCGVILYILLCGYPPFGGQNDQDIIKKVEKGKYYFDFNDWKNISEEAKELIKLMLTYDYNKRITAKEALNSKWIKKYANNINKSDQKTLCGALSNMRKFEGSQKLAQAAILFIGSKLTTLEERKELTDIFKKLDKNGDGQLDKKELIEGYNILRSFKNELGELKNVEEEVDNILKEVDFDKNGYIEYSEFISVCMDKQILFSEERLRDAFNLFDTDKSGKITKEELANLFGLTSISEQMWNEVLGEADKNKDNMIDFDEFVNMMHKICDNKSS

[5] = target: T4, Calcium-dependent protein kinase 4 (Plasmodium falciparum (isolate 3D7), UniProt Q8IBS5); test: MMV: CDPK4 Protein kinase inhibition assay using recombinant PfCDPK4, syntide2 peptide substrate, ATP and KinaseGlo to measure % inhibition at 1 uM MMV box compound.
T4 sequence (Q8IBS5 whole entry): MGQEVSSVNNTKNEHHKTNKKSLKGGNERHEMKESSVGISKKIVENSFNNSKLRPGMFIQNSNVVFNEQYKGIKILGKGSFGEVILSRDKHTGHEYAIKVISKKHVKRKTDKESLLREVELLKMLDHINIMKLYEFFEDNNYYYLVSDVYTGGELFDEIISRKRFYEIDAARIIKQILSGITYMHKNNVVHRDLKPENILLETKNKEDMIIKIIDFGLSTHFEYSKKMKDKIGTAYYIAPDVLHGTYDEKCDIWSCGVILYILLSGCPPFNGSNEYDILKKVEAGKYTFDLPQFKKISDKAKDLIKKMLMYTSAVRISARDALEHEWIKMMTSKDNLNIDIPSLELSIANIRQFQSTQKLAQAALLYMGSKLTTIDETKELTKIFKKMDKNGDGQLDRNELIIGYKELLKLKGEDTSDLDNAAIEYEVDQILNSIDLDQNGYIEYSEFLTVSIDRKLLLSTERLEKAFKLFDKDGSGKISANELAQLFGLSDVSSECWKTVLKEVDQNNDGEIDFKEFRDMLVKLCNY

Proline--tRNA ligase = target: T5, Proline--tRNA ligase (Plasmodium falciparum (isolate 3D7), UniProt Q8I5R7); test: MMV: ProRS recombinant Plasmodium falciparum Prolyl-tRNA-synthetase, assay with yeast tRNA, ATP, and proline and 3 uM MMV malaria box compound, assay read out with kinase glo as % inhibition.
T5 sequence (Q8I5R7 whole entry): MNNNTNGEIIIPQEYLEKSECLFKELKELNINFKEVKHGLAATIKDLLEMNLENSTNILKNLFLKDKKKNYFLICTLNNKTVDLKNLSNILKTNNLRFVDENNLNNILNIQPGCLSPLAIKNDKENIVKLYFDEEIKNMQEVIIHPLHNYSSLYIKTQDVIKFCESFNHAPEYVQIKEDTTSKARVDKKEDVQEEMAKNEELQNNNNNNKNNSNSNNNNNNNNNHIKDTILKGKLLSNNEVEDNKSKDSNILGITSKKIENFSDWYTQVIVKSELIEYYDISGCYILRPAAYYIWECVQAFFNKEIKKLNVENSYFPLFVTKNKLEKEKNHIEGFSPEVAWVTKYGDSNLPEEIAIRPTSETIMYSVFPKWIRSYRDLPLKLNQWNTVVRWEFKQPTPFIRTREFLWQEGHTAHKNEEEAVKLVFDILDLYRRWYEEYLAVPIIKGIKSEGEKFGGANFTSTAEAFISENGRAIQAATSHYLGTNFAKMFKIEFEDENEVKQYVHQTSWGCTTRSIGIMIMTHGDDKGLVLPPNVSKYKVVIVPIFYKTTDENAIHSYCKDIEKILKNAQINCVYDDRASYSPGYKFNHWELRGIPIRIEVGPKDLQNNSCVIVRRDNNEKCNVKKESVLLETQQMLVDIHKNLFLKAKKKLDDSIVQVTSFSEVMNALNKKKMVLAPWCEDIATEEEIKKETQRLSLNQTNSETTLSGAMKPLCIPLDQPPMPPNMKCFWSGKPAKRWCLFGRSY

Lysine--tRNA ligase = Lysine--tRNA ligase (Plasmodium falciparum (isolate 3D7), UniProt Q8IDJ8); test: MMV: KRS recombinant Plasmodium falciparum Lysyl-tRNA-synthetase, assay with yeast tRNA, ATP, and lysine and 3 uM MMV malaria box compound, assay read out with kinase glo as % inhibition.
Sequence of Lysine--tRNA ligase (Q8IDJ8 whole entry): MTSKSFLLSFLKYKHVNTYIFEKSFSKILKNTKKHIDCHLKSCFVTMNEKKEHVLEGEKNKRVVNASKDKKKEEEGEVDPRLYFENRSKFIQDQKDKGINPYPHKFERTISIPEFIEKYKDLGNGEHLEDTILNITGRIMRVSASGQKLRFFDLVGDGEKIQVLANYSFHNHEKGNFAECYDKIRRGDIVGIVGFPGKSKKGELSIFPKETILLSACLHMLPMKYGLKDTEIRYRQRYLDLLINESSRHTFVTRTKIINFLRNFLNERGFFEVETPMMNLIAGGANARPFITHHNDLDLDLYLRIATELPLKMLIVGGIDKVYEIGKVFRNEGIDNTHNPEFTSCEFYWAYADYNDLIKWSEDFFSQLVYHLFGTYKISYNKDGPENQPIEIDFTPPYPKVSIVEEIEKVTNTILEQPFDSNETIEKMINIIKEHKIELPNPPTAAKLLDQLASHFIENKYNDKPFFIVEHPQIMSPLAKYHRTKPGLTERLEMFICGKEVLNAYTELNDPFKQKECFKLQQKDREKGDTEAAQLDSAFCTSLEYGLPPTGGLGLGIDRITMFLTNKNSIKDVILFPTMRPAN

Compound	IC50 [1] [nM]	IC50 [2] [nM]	IC50 [3] [nM]	IC50 [4] [nM]	IC50 [5] [nM]	IC50 (Proline--tRNA ligase) [nM]	IC50 (Lysine--tRNA ligase) [nM]
COc1nc(Nc2ccc(C(C)C)cc2)nc(OC)n1	> 1000	> 1000	> 1000	> 1000	> 1000	> 2500	> 2500
CCOc1cccc(C(=O)Nc2ccc(-c3nc4ccccc4[nH]3)cc2)c1	> 1000	> 1000	> 1000	> 1000	> 1000	> 2500	> 2500
Clc1cc(Br)ccc1-c1ccc(CNCC2CCNCC2)o1	> 1000	> 1000	> 1000	> 1000	> 1000	> 2500	> 2500
CC1CC(C)CN(C(=O)c2ccc(Cl)cc2Cl)C1 (configuration not stated)	> 1000	> 1000	> 1000	> 1000	> 1000	> 2500	> 2500
OC(CNC1CCCC1)Cn1c2ccccc2c2ccccc21 (configuration not stated)	> 1000	> 1000	> 1000	> 1000	> 1000	> 2500	> 2500
Clc1ccc2[nH]c3c(NCCCN4CCOCC4)ncnc3c2c1	> 1000	> 1000	> 1000	> 1000	> 1000	> 2500	> 2500
Oc1c2c(nc3cc(-c4ccccc4)nn13)CCCC2	> 1000	> 1000	> 1000	> 1000	> 1000	> 2500	> 2500
Cc1cc(N2CCN(C3CCCC3)CC2)n2c(nc3ccccc32)c1C#N	> 1000	> 1000	> 1000	> 1000	> 1000	> 2500	> 2500
CCCCOc1ccc(C(=O)Nc2cc(C)on2)cc1	> 1000	> 1000	> 1000	> 1000	> 1000	> 2500	> 2500
CCc1ccc(Nc2cc(C)nc3nc(C)nn23)cc1	> 1000	> 1000	> 1000	> 1000	> 1000	> 2500	> 2500
CCN(CC)S(=O)(=O)c1ccc(-c2csc(Nc3ccc(C)c(C)c3)n2)cc1	> 1000	> 1000	> 1000	> 1000	> 1000	> 2500	> 2500
